Some test systems named below: OVCAR-5 ovarian; HOP-92 NSCLC; LOX IMVI melanoma; TK-10 renal; SW-620 colon; HOP-62 NSCLC; SN12C renal; OVCAR-4 ovarian; EKVX NSCLC; OVCAR-3 ovarian.
Test in all cases: NCI-60 cell line screen, 48 h

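Five compound concentrations were applied to cells in 96-well plates for 48 hours; endpoints were derived by simple linear interpolation of the resulting dose-response curve. Definition used: TGI = concentration required for complete inhibition of growth.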

Take `Nc1cc2c3c(cccc3c1)C(=O)N(c1ccc(OCCN3CCCC3)cc1)C2=O`: the TGI worked out at 46.3 µM in the assay on OVCAR-5 ovarian; 50.6 µM in the assay with HOP-92 NSCLC; 48.5 µM in the assay with LOX IMVI melanoma; 35.6 µM in the assay on TK-10 renal; 97 µM in the assay on SW-620 colon; 29.7 µM in the assay with HOP-62 NSCLC. The TGI in the assay on SN12C renal was over 66.7 µM; in the assay on OVCAR-4 ovarian, 33.8 µM; with EKVX NSCLC it was 46.1 µM; with OVCAR-3 ovarian, 29.7 µM.
For `COc1cc(/C=N/NC2=NCCN2)ccc1O`, the TGI in the assay with OVCAR-5 ovarian, in the assay on HOP-92 NSCLC, with LOX IMVI melanoma, in the assay with TK-10 renal, with SW-620 colon and in the assay on HOP-62 NSCLC was over 100 µM each time. In addition, the TGI with SN12C renal, in the assay with OVCAR-4 ovarian, in the assay on EKVX NSCLC and with OVCAR-3 ovarian was over 100 µM throughout.
As to `COC(=O)C(NC(=O)OC(C)(C)C)P(=O)(OC)OC` (centres undefined), the TGI with OVCAR-5 ovarian, in the assay with HOP-92 NSCLC, in the assay with LOX IMVI melanoma, in the assay with TK-10 renal, in the assay on SW-620 colon and in the assay on HOP-62 NSCLC was over 100 µM throughout. Besides, the TGI in the assay on SN12C renal, with OVCAR-4 ovarian, with EKVX NSCLC and with OVCAR-3 ovarian was over 100 µM each time.
On to `NN/C(=N\S(=O)(=O)c1ccc(S(=O)(=O)c2ccccc2)s1)Nc1ccc(Cl)cc1`, for which the TGI was over 100 µM in the assay on OVCAR-5 ovarian; 73.3 µM with HOP-92 NSCLC; 36.6 µM in the assay with LOX IMVI melanoma; over 100 µM in the assay with TK-10 renal; over 100 µM in the assay on SW-620 colon; over 100 µM with HOP-62 NSCLC. The TGI was 77.8 µM in the assay with SN12C renal, over 100 µM with OVCAR-4 ovarian, 50.4 µM in the assay with EKVX NSCLC and 72.2 µM with OVCAR-3 ovarian.
Consider `CC(NC(=O)C(Cc1ccc(OC(=O)c2ccccc2)cc1)NC(=O)OC(C)(C)C)C(=O)NCC(=O)NC(Cc1ccccc1)C(=O)NN` (centres undefined), for which the TGI was over 100 µM in the assay on OVCAR-5 ovarian; over 100 µM with HOP-92 NSCLC; 45 µM with LOX IMVI melanoma; over 100 µM with TK-10 renal; over 100 µM in the assay on SW-620 colon; over 100 µM in the assay on HOP-62 NSCLC. Besides, the TGI with OVCAR-4 ovarian, with EKVX NSCLC and in the assay with OVCAR-3 ovarian was over 100 µM in each case.
As for `O=C1C=C(N2CCN(CCOCCO)CC2)C(=O)c2c(O)ccc(O)c21`, the TGI was found to be 12.8 µM with OVCAR-5 ovarian; 20.7 µM with HOP-92 NSCLC; 6.62 µM in the assay with LOX IMVI melanoma; 22.7 µM in the assay on TK-10 renal; 6.48 µM in the assay with SW-620 colon; 32.7 µM in the assay with HOP-62 NSCLC. Moreover, the TGI in the assay with SN12C renal came out at 14.8 µM; with OVCAR-4 ovarian, 8.33 µM; with EKVX NSCLC, 33.9 µM; in the assay on OVCAR-3 ovarian, 5.35 µM.
As for `CCOC(=O)/C=C/[C@@H](CC)O[Si](C(C)C)(C(C)C)C(C)C`, the TGI in the assay with OVCAR-5 ovarian, in the assay on HOP-92 NSCLC, with LOX IMVI melanoma, in the assay with TK-10 renal, in the assay on SW-620 colon and with HOP-62 NSCLC was over 100 µM each time. Besides, the TGI with OVCAR-4 ovarian, with EKVX NSCLC and in the assay on OVCAR-3 ovarian was over 100 µM in each case.
As to `CC(C)(C)[Si](C)(C)OC[C@H](/C=C\CCCC(=O)O)NC1(c2ccccc2)c2ccccc2-c2ccccc21`, the TGI in the assay with OVCAR-5 ovarian is 76.6 µM; in the assay on HOP-92 NSCLC, 25.5 µM; in the assay with LOX IMVI melanoma it was 25.5 µM; in the assay on TK-10 renal it was over 100 µM; in the assay on SW-620 colon it was over 100 µM; in the assay with HOP-62 NSCLC, 42.3 µM. Also, the TGI was 31.6 µM in the assay on SN12C renal, over 100 µM in the assay with OVCAR-4 ovarian, 40.9 µM in the assay with EKVX NSCLC and 36.1 µM in the assay on OVCAR-3 ovarian.
For the compound `Cc1cc(=O)oc2c(CNC(CC(C)C)C(=O)O)c(O)ccc12` (centres undefined), the TGI in the assay with OVCAR-5 ovarian, with HOP-92 NSCLC, in the assay with LOX IMVI melanoma, with TK-10 renal, in the assay with SW-620 colon and in the assay on HOP-62 NSCLC was over 100 µM throughout. For the same compound, the TGI with SN12C renal, with OVCAR-4 ovarian, in the assay on EKVX NSCLC and in the assay on OVCAR-3 ovarian was over 100 µM each time.
As for `O=C(NCCCCCN1CCC2(CCCCC2)CC1)C(C1CCCCC1)C1CCCCC1`, the TGI amounted to 17.7 µM in the assay on OVCAR-5 ovarian; 12.2 µM in the assay with HOP-92 NSCLC; 7.02 µM in the assay on LOX IMVI melanoma; 10.4 µM in the assay with TK-10 renal; 8.05 µM in the assay on SW-620 colon; 4.07 µM with HOP-62 NSCLC. Also, the TGI in the assay on SN12C renal worked out at 9.67 µM; with OVCAR-4 ovarian it was 14.5 µM; in the assay on EKVX NSCLC, 9.66 µM; in the assay with OVCAR-3 ovarian, 8.97 µM.
Consider `CCOC(=O)C(C)N1C(=O)c2ccccc2S1(=O)=O` (centres undefined), for which the TGI with OVCAR-5 ovarian, with HOP-92 NSCLC, in the assay with LOX IMVI melanoma, in the assay on SW-620 colon, in the assay on HOP-62 NSCLC and with SN12C renal was over 100 µM throughout. Besides, the TGI with OVCAR-4 ovarian, in the assay on EKVX NSCLC and in the assay on OVCAR-3 ovarian was over 100 µM in each case.
Regarding `Cc1c(O)c(=O)ccn1CCc1ccc(O)cc1`, the TGI in the assay with OVCAR-5 ovarian is over 100 µM; in the assay with HOP-92 NSCLC, 57 µM; in the assay with LOX IMVI melanoma, 53.9 µM; in the assay on TK-10 renal, over 100 µM; with SW-620 colon, over 100 µM; in the assay on HOP-62 NSCLC, over 100 µM. Besides, the values for the TGI with OVCAR-4 ovarian, in the assay with EKVX NSCLC and with OVCAR-3 ovarian were 76.2 µM, 93.3 µM and 63.4 µM, respectively.
Take `CCOC(=O)c1cc(Br)c(-c2cc(C)co2)[nH]1`: the TGI in the assay with OVCAR-5 ovarian, in the assay on HOP-92 NSCLC, in the assay on LOX IMVI melanoma, in the assay on SW-620 colon, in the assay on HOP-62 NSCLC and in the assay on SN12C renal was over 100 µM each time. For the same compound, the TGI in the assay on OVCAR-4 ovarian, with EKVX NSCLC and with OVCAR-3 ovarian was over 100 µM in each case.
For `O=C(Nc1ccc(Cl)cc1)c1cc(S(=O)(=O)Nc2n[nH]c(=O)n2-c2ccccc2)c(S)cc1Cl`, the TGI in the assay on OVCAR-5 ovarian, with HOP-92 NSCLC, in the assay with LOX IMVI melanoma, in the assay with SW-620 colon, with HOP-62 NSCLC and with SN12C renal was over 100 µM throughout. In addition, the TGI in the assay on OVCAR-4 ovarian, in the assay with EKVX NSCLC and in the assay on OVCAR-3 ovarian was over 100 µM throughout.
